PubChem BioAssay AID2060488 (Molecular Pharmacology Branch, DTP, NCI, 2025)

Test system: 966289-007-R4-J1-PDC complex spheroid viability
Assay: Anticancer human tumor 966289-007-R4-J1-PDC patient-derived pancreatic adenocarcinoma cell line growth inhibition [GQUAD]
Details: for IC50: curve of first compound; for viability, T/C: stronger effect = lower value
Description: DNA G-quadruplex Stabilizer Agents in Combinations in Complex Spheroids
A high-throughput screen of multi-cell type tumor spheroids was designed to identify active combinations of DNA G-quadruplex stabilizer agents and targeted small molecules. Complex spheroids include a stromal component modeled by human endothelial cells (HUVEC) and fibroblasts modeled by human mesenchymal stem cells (MSCs). The concentration ranges selected for each drug and investigational agent were based upon clinically achievable concentrations if the clinical Cmax of the agent was known.
Compounds. The drugs and investigational agents: pidnarulex (CX-5461; NSC782164), APTO-253 (NSC789042), BRACO-19 (NSC847499), peposertib (NSC802822), ceralasertib (NSC780249), elimusertib (NSC800525), camonsertib (NSC841442), AZD-1390 (NSC803789), olaparib (NSC753686), talazoparib (NSC767125), ART-558 (NSC835418), sotorasib (NSC818433), MRTX-1133 (NSC836407), SN-38 (NSC673596), topotecan (NSC609699), etoposide (NSC141540), doxorubicin (NSC123127), gemcitabine (NSC613327), 5-fluorouracil (NSC19893), paclitaxel (NSC125973), vemurafenib (NSC761431), panobinostat (NSC761190), R-306465 (JNJ-16241199; NSC773264), adavosertib (NSC754352), TP-3654 (NSC805149), carboplatin (NSC241240), KSQ-4279 (NSC840948), and staurosporine (NSC755774) were obtained from the National Cancer Institute (NCI) Developmental Therapeutics Program Chemical Repository (34). The FDA-approved anticancer drug set is available from the NCI Developmental Therapeutics Program. […] The stock solutions were prepared in dimethyl sulfoxide (DMSO, Sigma-Aldrich, St. Louis, MO, cat. D2650) at 800-fold the tested concentration and stored at -70 degrees C prior to their use. All drugs and investigational agents were tested over a range starting from a high concentration at or near the clinical Cmax and decreasing in half-log increments. If the clinical Cmax for an agent had not been determined, the highest concentration tested was 10 microM.
2.3 Cell Culture. All cells were maintained in an incubator at 37 degrees C and 5% CO2 with 95% humidity. The PDC lines were cultured according to standard operating procedures established by the NCI PDMR. All PDCs were thawed and cultured in Matrigel-coated flasks prepared with a working solution of 1X Ham's F-12 nutrient mix, without supplementation (Invitrogen, cat. 11765054), 100 U/mL penicillin-streptomycin (Invitrogen, cat. 15140122), and 2.5% Matrigel (Corning Inc., cat. 354248) for the first three passages. The 857933-349-R-J2-PDC line was cultured in 6C/Colon 1B media, which includes advanced DMEM/F-12 (Thermo Fisher Scientific, cat. 12634028), 10 mM HEPES (Thermo Fisher Scientific, cat. 15630080), 1X GlutaMAX supplement (Thermo Fisher Scientific, cat. 35050061), 0.1 mg/mL primocin (InvivoGen, cat. ant-pm-2), 10% defined fetal bovine serum, heat inactivated (HyClone Laboratories Inc., cat. SH30070.03HI), 50% L-WRN conditioned media (ATCC, cat. CRL-3276), 1.25 mM N-Acetyl-L-cysteine (Sigma-Aldrich, cat. A9165), 10 mM nicotinamide (Sigma-Aldrich, cat. N0636), 1X B-27 supplement (Thermo Fisher Scientific, cat. 17504044), 1X N-2 supplement (Thermo Fisher Scientific, cat. 17502048), 10 microM Y-27632 dihydrochloride (Tocris Bioscience, cat. 1254), and 50 ng/mL human EGF recombinant protein (Thermo Fisher Scientific, cat. PHG0311). The 485176-168-R4-J1-PDC line was cultured in Panc media, which includes all 6C/Colon 1B media components plus 100 ng/mL human FGF-10 (Thermo Fisher Scientific, cat. 100-26), 500 nM SB-431542 (Selleckchem, cat. S1067), and gastrin (Tocris, cat. 3006).
[…]
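Further: spheroids exposed to the agents for seven days before readout.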
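Wherever viability, T/C is given: percent viability relative to DMSO vehicle control wells taken as 100%.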

Structure (SMILES): COc1ncnc(C2CC2)c1-c1ncc2cnn(Cc3ccc(-c4nc(C(F)(F)F)cn4C(C)C)cc3)c2n1 + Cc1cnc(CNC(=O)c2c(=O)c3ccc(N4CCCN(C)CC4)nc3n3c2sc2ccccc23)cn1
- IC50 (second compound 0.0316 µM): > 10000 nM
- IC50 (second compound 0.1 µM): < 31.6 nM
- IC50 (second compound 0.316 µM): < 31.6 nM
- IC50 (second compound 1 µM): < 31.6 nM
- IC50 (second compound 3.16 µM): < 31.6 nM
- IC50 (second compound 10 µM): < 31.6 nM
- viability, T/C (second compound 0.0316 µM, first compound 0.0316 µM): 105%
- viability, T/C (second compound 0.0316 µM, first compound 0.1 µM): 94.2%
- viability, T/C (second compound 0.0316 µM, first compound 0.316 µM): 103%
- viability, T/C (second compound 0.0316 µM, first compound 1 µM): 92.9%
- viability, T/C (second compound 0.0316 µM, first compound 3.16 µM): 101%
- viability, T/C (second compound 0.0316 µM, first compound 10 µM): 97.3%
- viability, T/C (second compound 0.1 µM, first compound 0.0316 µM): 24.4%
- viability, T/C (second compound 0.1 µM, first compound 0.1 µM): 24.1%
- viability, T/C (second compound 0.1 µM, first compound 0.316 µM): 25.3%
- viability, T/C (second compound 0.1 µM, first compound 1 µM): 23.8%
- viability, T/C (second compound 0.1 µM, first compound 3.16 µM): 26.4%
- viability, T/C (second compound 0.1 µM, first compound 10 µM): 29.3%
- viability, T/C (second compound 0.316 µM, first compound 0.0316 µM): 9.38%
- viability, T/C (second compound 0.316 µM, first compound 0.1 µM): 10.1%
- viability, T/C (second compound 0.316 µM, first compound 0.316 µM): 9.14%
- viability, T/C (second compound 0.316 µM, first compound 1 µM): 10.4%
- viability, T/C (second compound 0.316 µM, first compound 3.16 µM): 10.8%
- viability, T/C (second compound 0.316 µM, first compound 10 µM): 10.4%
- viability, T/C (second compound 1 µM, first compound 0.0316 µM): 6.44%
- viability, T/C (second compound 1 µM, first compound 0.1 µM): 5.74%
- viability, T/C (second compound 1 µM, first compound 0.316 µM): 6.97%
- viability, T/C (second compound 1 µM, first compound 1 µM): 5.21%
- viability, T/C (second compound 1 µM, first compound 3.16 µM): 5.65%
- viability, T/C (second compound 1 µM, first compound 10 µM): 7.13%
- viability, T/C (second compound 3.16 µM, first compound 0.0316 µM): 4.34%
- viability, T/C (second compound 3.16 µM, first compound 0.1 µM): 4.38%
- viability, T/C (second compound 3.16 µM, first compound 0.316 µM): 4.76%
- viability, T/C (second compound 3.16 µM, first compound 1 µM): 4.44%
- viability, T/C (second compound 3.16 µM, first compound 3.16 µM): 5.14%
- viability, T/C (second compound 3.16 µM, first compound 10 µM): 5.37%
- viability, T/C (second compound 10 µM, first compound 0.0316 µM): 0.08%
- viability, T/C (second compound 10 µM, first compound 0.1 µM): 0.13%
- viability, T/C (second compound 10 µM, first compound 0.316 µM): 0.17%
- viability, T/C (second compound 10 µM, first compound 1 µM): 0.16%
- viability, T/C (second compound 10 µM, first compound 3.16 µM): 0.4%
- viability, T/C (second compound 10 µM, first compound 10 µM): 0.41%
